Laboratory results: patent US9061984B2 (University of Louisville Research Foundation, Inc., priority 2008, dated 2015)
pIC50: −log10 of the molar value. Values after ≈ are worked out from the molar mass of the structure shown. Like-named read-outs stand apart in the source and are kept apart here.

Assays:
L. amazonensis Lma CL1 = assay: Activity against macrophages infected with Leishmania amastigotes
[1] = system: axenic amastigotes of L. amazonensis (strain MHOM/BR/76/LTB-012); assay: microbe, parasite or virus in culture; conditions: Leishmania amazonensis, 72 h, read-out: IC50 L. amazonensis
peritoneal macrophages = assay: Toxicity to peritoneal macrophages (Trypan Blue count); type: cell-based, BALB/C mouse
L. peruviana LCA08 = assay: Activity against macrophages infected with Leishmania amastigotes; conditions: 48 h, read-out: IC50 L. peruviana LCA08
L. amazonensis = conditions: for Lesion diameter / Reduction of parasite burden After 4 weeks / Reduction of parasite burden After 7 weeks: compounds 5 mg/kg/day, Glucantime 33 mg/kg/day, intralesional
L. braziliensis PER006 = assay: Activity against macrophages infected with Leishmania amastigotes; conditions: 48 h, read-out: IC50 L. braziliensis PER006
MCF-7 cells = assay: Cell growth inhibition bioassay (sulforhodamine B); type: cell-based, human; conditions: Homo sapiens, MCF7; 48 h, SRB; read-out: GI50 in indicated cell line: MCF-7
How it was run: (§1)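 Cells were exposed to compound alongside matched solvent controls, then stained with sulforhodamine B. Percent growth inhibition was calculated from dye absorbance against the control.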

K562 cells = assay: Cell growth inhibition bioassay (sulforhodamine B); type: cell-based, human; conditions: Homo sapiens, K562; 48 h, SRB; read-out: GI50 in indicated cell line: K562
How it was run: as §1

DU145 cells = assay: Cell growth inhibition bioassay (sulforhodamine B); type: cell-based, human; conditions: Homo sapiens, DU-145; 48 h, SRB; read-out: GI50 in indicated cell line: DU145
How it was run: as §1

M-14 cells = assay: Cell growth inhibition bioassay (sulforhodamine B); type: cell-based, human; conditions: Homo sapiens, M14; 48 h, SRB; read-out: GI50 in indicated cell line: M-14
How it was run: as §1

HT-29 cells = assay: Cell growth inhibition bioassay (sulforhodamine B); type: cell-based, human; conditions: Homo sapiens, HT-29; 48 h, SRB; read-out: GI50 in indicated cell line: HT-29
How it was run: as §1

H460 cells = assay: Cell growth inhibition bioassay (sulforhodamine B); type: cell-based, human; conditions: Homo sapiens, NCI-H460; 48 h, SRB; read-out: GI50 in indicated cell line: H460
How it was run: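 Growth inhibition was measured colorimetrically with sulforhodamine B staining and expressed as percent inhibition relative to solvent-treated controls. Cell lines were human: MCF-7 breast adenocarcinoma, DU145 and PC3 prostate carcinoma/adenocarcinoma, H460 large cell lung cancer.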

[2] = Cytotoxicity on VERO cells (MTT), anti-T. cruzi study; conditions: African green monkey, VERO cells, IC50 - VERO Cytotoxicity, Table 2
VERO cells = assay: as above; conditions: for pIC50: Chlorocebus sabaeus, Vero, read-out: IC50 VERO, Table 3; for IC50 - VERO Cytotoxicity: Table 2
3T3 cells = assay: Cell growth inhibition bioassay (sulforhodamine B); type: cell-based, mouse; conditions: Mus musculus, NIH3T3; 48 h, SRB; read-out: GI50 in indicated cell line: 3T3
How it was run: as §1

PC3 cells = assay: Cell growth inhibition bioassay (sulforhodamine B); type: cell-based; conditions: Homo sapiens, PC-3; 48 h, SRB; read-out: GI50 in indicated cell line: PC3
Method: The cytotoxicity of compounds was assayed as follows. […] Appropriate solvent controls were tested for comparison. The percent inhibition of cell growth relative to the control was evaluated colorimetrically using a sulforhodamine B dye by comparison to the control. The calorimetric procedure followed that published in Skehan et al., J. Nat. Cancer Inst., […], pp. 1107-1112 (1990) and Boyd & Paull, Drug Dev. Res., Vol. 34, pp. 91-109 (1995). […] The cell lines are: 3T3 cells are BALB/3T3 clone A31 embryonic mouse fibroblast cells; H460 cells are human large cell lung cancer cells; DU145 cells are human prostate carcinoma cells; MCF-7 cells are human breast adenocarcinoma cells; M-14 cells are human melanoma cells; HT-29 cells are human colon adenocarcinoma cells; PC3 cells are human prostate adenocarcinoma cells; K562 cells are human chronic myelogenous leukemia cells; and VERO cells are African Green Monkey kidney epithelial cells.

[3] = system: Trypanosoma cruzi (Tulahuen C4); assay: In vitro anti-T. cruzi activity (β-galactosidase CPRG colorimetric assay in VERO monolayer); type: cell-based; conditions: for T. cruzi Inhib. (%) / inhibition at 10 µg/mL: 10 μg/mL of each compound, 120 hours; for IC50 - T. cruzi / IC50: Table 2; for inhibition at 10 µg/mL / IC50 / pIC50: Trypanosoma cruzi, TULAHUEN, Vero; for inhibition at 10 µg/mL: 120 h, read-out: T. cruzi Inhib. (%); for IC50: read-out: IC50 - T. cruzi; for pIC50: Table 3, read-out: IC50 T. cruzi
[4] = system: axenic amastigotes of L. amazonensis (strain MHOM/BR/76/LTB-012)
[5] = Leishmania amazonensis, Macrophage, 48 h, read-out: IC50 L. amazonensis Lma CL1
[6] = Mus musculus, Peritoneal macrophage, 48 h, Table 7, read-out: IC50 Macrophage
[7] = Leishmania peruviana, Macrophage
[8] = Leishmania braziliensis, Macrophage

Row | Compound | pIC50 (L. amazonensis Lma CL1; [5]) | pIC50 [1] | pIC50 (peritoneal macrophages; [6]) | pIC50 (L. peruviana LCA08; [7]) | Lesion diameter (L. amazonensis) [mm] | Reduction of parasite burden After 4 weeks (L. amazonensis) [%] | pIC50 (L. braziliensis PER006; [8]) | GI50 (MCF-7 cells) [µM] | GI50 (K562 cells) [µM] | GI50 (DU145 cells) [µM] | GI50 (M-14 cells) [µM] | GI50 (HT-29 cells) [µM] | GI50 (H460 cells) [µM] | IC50 [2] [µg/mL] | pIC50 (VERO cells) | GI50 (3T3 cells) [µM] | GI50 (PC3 cells) [µM] | T. cruzi Inhib. (%) [3] [%] | inhibition at 10 µg/mL [3] [%] | pIC50 [3] | further results
1 | COCOc1cc(O)c(C(=O)/C=C/c2cc(OC)c(OC)c(OC)c2)c(OC)c1 [Compound I-46] | 4.54 | 5.21 | 3.88 | 4.71 | 5.1 | 74 | 4.88 | – | – | – | – | – | – | – | – | – | – | – | – | – | cutaneous toxicity (L. amazonensis; at the tested doses (5 mg/kg/day intralesional)): did not exhibit any cutaneous toxicity; Reduction of parasite burden After 7 weeks (L. amazonensis): 41%
2 | C=CCOc1cc(OC)c(C(=O)/C=C/c2ccc(OC)cc2)c(OCC=C)c1 [Compound I-10, (2E)-1-[2-Methoxy-4,6-bis(2-propenyloxy)phenyl]-3-(4-methoxyphenyl)-2-propen-1-one] | – | 5.26 | 4.73 | – | – | – | – | 19.5 | 16.6 | 21 | 27.6 | 28.4 | 20 | 48 (≈ 126 µM) | 4.00 | 41 | 18.1 | 62.86 | 63.5 | 4.67 | IC50 - VERO Cytotoxicity (VERO cells): 38.00 µg/mL (≈ 99.9 µM); IC50 - T. cruzi [3]: 8.14 µg/mL (≈ 21.4 µM); IC50 [3]: 7.28 µg/mL
3 | COc1ccc(/C=C/C(=O)c2c(O)cc(OC)cc2OC)cc1 [Compound I-01, (2E)-1-(2-Hydroxy-4,6-dimethoxyphenyl)-3-(4-methoxyphenyl)-2-propen-1-one] | – | 4.76 | – | – | – | – | – | 17.5 | 20.5 | 30.8 | 22.5 | 45.3 | 24.1 | – | – | 17.2 | 15.2 | 41.36 | 29 | < 4.60 | –
4 | C[C@@H]1[C@H](O)[C@@H](C)/C=C/C=C/C=C/C=C/C=C/C=C/C=C/[C@H](O[C@@H]2O[C@H](C)[C@@H](O)[C@H](N)[C@@H]2O)C[C@@H]2O[C@](O)(C[C@@H](O)C[C@@H](O)[C@H](O)CC[C@@H](O)C[C@@H](O)CC(=O)O[C@H]1C)C[C@H](O)[C@H]2C(=O)O [Amphotericin B, reference compound] | – | – | – | – | – | – | – | – | – | – | – | – | – | – | – | – | – | – | – | – | pIC50 [4]: 6.85; pIC50 ([4]; read-out: IC50 L. amazonensis, axenic amastigotes, 72 h, Table 7): 7.00; pIC50 ([4]; read-out: L. amazonensis IC50, Table 8b): 7.00; pIC50 (L. amazonensis Lma CL1; read-out: IC50 L. amazonensis Lma CL1, infected macrophages, 48 h): 6.40; pIC50 (peritoneal macrophages): 5.27; pIC50 (peritoneal macrophages; 48 h, Table 7, read-out: IC50 Macrophage): 5.28; pIC50 (L. peruviana LCA08; infected macrophages): 7.00; pIC50 (L. braziliensis PER006; infected macrophages): 7.00
5 | COc1cc(O)c(C(=O)/C=C/c2ccc3c(c2)OCO3)c(OC)c1 [Compound I-02, (2E)-3-(1,3-Benzodioxol-5-yl)-1-(2-hydroxy-4,6-dimethoxyphenyl)-2-propen-1-one] | – | < 3.52 | – | – | – | – | – | 140 | 18.9 | > 190 | > 190 | > 190 | > 190 | – | – | 39 | 118 | 11.77 | 22.8 | < 4.60 | –
6 | COCOc1cc(OC)c(C(=O)/C=C/c2ccc(OC)cc2)c(OCOC)c1 [Compound I-44] | 4.92 | 5.89 | < 3.60 | 3.96 | 4.7 | 11 | 5.29 | – | – | – | – | – | – | – | – | – | – | – | – | – | Reduction of parasite burden After 7 weeks (L. amazonensis): 17%
7 | C=CCOc1cc(OC)c(C(=O)/C=C/c2ccc3c(c2)OCO3)c(OCC=C)c1 [Compound I-19, (2E)-3-(1,3-Benzodioxol-5-yl)-1-[2-methoxy-4,6-bis(2-propenyloxy)phenyl]-2-propen-1-one] | – | 5.18 | – | – | – | – | – | 10.9 | 12.2 | 17.5 | 17.2 | 24.1 | 14.5 | 49 (≈ 124 µM) | 4.13 | 31.7 | 9.6 | 58.82 | 74.1 | 4.87 | IC50 - VERO Cytotoxicity (VERO cells): 29.00 µg/mL (≈ 73.5 µM); IC50 - T. cruzi [3]: 5.35 µg/mL (≈ 13.6 µM); IC50 [3]: 7.33 µg/mL
8 | O=c1[nH]cc(F)c(=O)[nH]1 [Compound 5FU, 5-Fluorouracil, reference compound] | – | – | – | – | – | – | – | 6.5 | 16.7 | 15.4 | 22.4 | 8.9 | 4.1 | – | – | < 1.54 | 14.6 | – | – | – | –
9 | C=CCOc1cc(OC)c(C(=O)/C=C/c2ccccn2)c(OCC=C)c1 [Compound I-27, (2E)-1-[2-Methoxy-4,6-bis(2-propenyloxy)phenyl]-3-(2-pyridinyl)-2-propen-1-one] | 6.05 | 5.96 | 4.90 | 5.40 | 4.1 | −4 | 5.85 | – | – | – | – | – | – | 1 (≈ 2.85 µM) | 5.55 | – | – | – | 77.2 | 5.72 | pIC50 (L. amazonensis Lma CL1; Leishmania amazonensis, Macrophage, read-out: bioactivities (IC50) in macrophage-infected model): 5.40 to 6.05; IC50 [3]: 0.67 µg/mL; Reduction of parasite burden (column After 7 weeks, analyzed after 6 weeks treatment) (L. amazonensis; 5 mg/kg/day intralesional, after 6 weeks treatment (footnote d)): 25^d %
